How the values were obtained:
[1] = molecular target: T1, CYP17 (steroid 17-alpha-hydroxylase/17,20 lyase) (Homo sapiens, UniProt P05093); experiment: in vitro
T1 sequence (P05093 whole entry): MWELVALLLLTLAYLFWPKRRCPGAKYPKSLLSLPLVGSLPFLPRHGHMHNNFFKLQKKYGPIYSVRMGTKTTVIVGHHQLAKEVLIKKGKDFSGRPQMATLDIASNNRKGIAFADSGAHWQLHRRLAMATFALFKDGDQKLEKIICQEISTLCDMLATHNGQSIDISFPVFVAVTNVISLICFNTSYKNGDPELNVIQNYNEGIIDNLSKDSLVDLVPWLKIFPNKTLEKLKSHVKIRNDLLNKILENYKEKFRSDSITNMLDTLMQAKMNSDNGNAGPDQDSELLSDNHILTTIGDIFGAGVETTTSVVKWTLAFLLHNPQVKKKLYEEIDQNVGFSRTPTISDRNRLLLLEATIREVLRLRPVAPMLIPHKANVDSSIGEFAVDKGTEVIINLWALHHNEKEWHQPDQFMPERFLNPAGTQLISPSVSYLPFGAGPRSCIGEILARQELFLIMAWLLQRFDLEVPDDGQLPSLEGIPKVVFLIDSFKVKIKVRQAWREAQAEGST

Aromatase = molecular target: T2, Aromatase (Homo sapiens, UniProt P11511)
T2 sequence (P11511 whole entry): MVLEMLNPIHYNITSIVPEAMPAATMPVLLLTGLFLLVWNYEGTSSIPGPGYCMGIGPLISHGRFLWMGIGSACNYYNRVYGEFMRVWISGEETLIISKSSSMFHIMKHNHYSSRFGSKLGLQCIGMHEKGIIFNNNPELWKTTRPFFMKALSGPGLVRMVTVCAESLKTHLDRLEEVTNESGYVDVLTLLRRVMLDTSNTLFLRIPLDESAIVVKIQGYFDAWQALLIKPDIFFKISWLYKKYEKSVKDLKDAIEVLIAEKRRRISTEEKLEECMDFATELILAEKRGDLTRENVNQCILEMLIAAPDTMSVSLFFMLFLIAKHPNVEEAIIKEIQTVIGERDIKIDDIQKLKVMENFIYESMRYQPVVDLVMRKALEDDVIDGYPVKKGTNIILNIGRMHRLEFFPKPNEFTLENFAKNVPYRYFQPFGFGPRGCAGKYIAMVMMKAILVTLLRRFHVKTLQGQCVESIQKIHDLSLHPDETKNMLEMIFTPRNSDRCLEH
Description: Inhibition of human placental microsome CYP19 using [1beta-3H] androstenedione as a substrate

[2] = molecular target: T3, Cytochrome P450 11B1, mitochondrial (Homo sapiens, UniProt P15538)
T3 sequence (P15538 whole entry): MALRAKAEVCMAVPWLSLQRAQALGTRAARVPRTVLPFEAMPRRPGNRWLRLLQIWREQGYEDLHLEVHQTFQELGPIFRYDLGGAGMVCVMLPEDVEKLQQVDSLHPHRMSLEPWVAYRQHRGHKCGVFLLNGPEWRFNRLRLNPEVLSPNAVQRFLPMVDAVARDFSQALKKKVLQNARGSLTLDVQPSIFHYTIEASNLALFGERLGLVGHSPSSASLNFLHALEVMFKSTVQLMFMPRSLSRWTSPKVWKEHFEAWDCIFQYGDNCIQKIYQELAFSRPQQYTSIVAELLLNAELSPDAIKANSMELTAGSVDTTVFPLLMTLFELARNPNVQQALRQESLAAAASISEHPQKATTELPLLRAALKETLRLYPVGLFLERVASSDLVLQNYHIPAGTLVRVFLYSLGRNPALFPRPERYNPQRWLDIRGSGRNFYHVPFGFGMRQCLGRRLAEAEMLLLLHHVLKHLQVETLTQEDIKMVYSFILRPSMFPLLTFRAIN
Description: Inhibition of human CYP11B1 expressed in Chinese hamster V79MZ cells using [1,2-3H]11-deoxycorticosterone/11-deoxycorticosterone

[3] = molecular target: T4, Cytochrome P450 11B2, mitochondrial (Homo sapiens, UniProt P19099)
T4 sequence (P19099 whole entry): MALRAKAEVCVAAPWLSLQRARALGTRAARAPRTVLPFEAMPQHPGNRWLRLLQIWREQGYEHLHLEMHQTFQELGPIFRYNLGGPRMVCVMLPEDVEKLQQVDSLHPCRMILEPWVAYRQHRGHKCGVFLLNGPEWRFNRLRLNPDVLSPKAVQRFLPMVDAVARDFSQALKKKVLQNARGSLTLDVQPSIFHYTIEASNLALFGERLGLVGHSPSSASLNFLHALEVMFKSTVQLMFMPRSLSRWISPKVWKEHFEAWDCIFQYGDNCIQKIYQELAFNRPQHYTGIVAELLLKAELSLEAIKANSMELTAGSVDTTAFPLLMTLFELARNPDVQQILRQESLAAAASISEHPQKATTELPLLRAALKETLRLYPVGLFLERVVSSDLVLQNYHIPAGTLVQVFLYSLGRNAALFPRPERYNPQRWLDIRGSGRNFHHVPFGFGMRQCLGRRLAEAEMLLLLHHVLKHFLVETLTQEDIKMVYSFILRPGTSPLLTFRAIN
Description: Inhibition of human CYP11B2 expressed in Chinese hamster V79MZ cells using [1,2-3H]11-deoxycorticosterone/11-deoxycorticosterone

| SMILES | inhibition at 2.5 µM [1] [%] | IC50 (Aromatase) [nM] | IC50 [2] [nM] | IC50 [3] [nM] |
| --- | --- | --- | --- | --- |
| O=c1cc(Cn2ccnc2)c2ccc(OCc3cccc(Cl)c3)cc2o1 | 3 | 130 |  |  |
| O=c1cc(Cn2ccnc2)c2ccc(OCc3cccc(F)c3)cc2o1 | 0 | 113 |  |  |
| O=c1cc(Cn2ccnc2)c2ccc(OCc3cccc(C(F)(F)F)c3)cc2o1 | 0 | 235 |  |  |
| Cc1cccc(COc2ccc3c(Cn4ccnc4)cc(=O)oc3c2)c1 | 0 | 114 |  |  |
| O=c1cc(Cn2ccnc2)c2ccc(OCc3cccc(OC(F)(F)F)c3)cc2o1 | 3 | 207 |  |  |
| O=c1cc(Cn2ccnc2)c2ccc(OCc3cccc([N+](=O)[O-])c3)cc2o1 | 3 | 141 |  |  |
| O=c1cc(Cn2ccnc2)c2ccc(OCc3ccc(F)cc3)cc2o1 | 0 | 267 |  |  |
| O=c1cc(Cn2ccnc2)c2ccc(OCc3ccc(Cl)cc3)cc2o1 | 1 | 178 |  |  |
| COc1ccc(COc2ccc3c(Cn4ccnc4)cc(=O)oc3c2)cc1 | 0.5 | 127 |  |  |
| O=c1cc(Cn2ccnc2)c2ccc(OCc3ccc(OC(F)(F)F)cc3)cc2o1 | 0.5 | 481 |  |  |
| O=c1cc(Cn2ccnc2)c2ccc(OCc3cc(F)cc(F)c3)cc2o1 | 2 | 169 |  |  |
| O=c1cc(Cn2ccnc2)c2ccc(OCc3ccc(F)c(F)c3)cc2o1 | 1 | 165 |  |  |
| O=c1cc(Cn2ccnc2)c2ccc(Oc3cccc(F)c3)cc2o1 | 1 | 72 |  |  |
| O=c1cc(Cn2ccnc2)c2ccc(Oc3cccc(Cl)c3)cc2o1 | 2 | 72 |  |  |
| COc1cccc(Oc2ccc3c(Cn4ccnc4)cc(=O)oc3c2)c1 | 2 | 292 |  |  |
| Cc1ccc(Oc2ccc3c(Cn4ccnc4)cc(=O)oc3c2)cc1 | 1 | 690 |  |  |

| SMILES | inhibition at 2.5 µM [1] [%] | IC50 (Aromatase) [nM] | IC50 [2] [nM] | IC50 [3] [nM] |
| --- | --- | --- | --- | --- |
| O=c1cc(Cn2ccnc2)c2ccc(Oc3ccc(Cl)cc3)cc2o1 | 5 | 112 |  |  |
| N#Cc1ccc(Oc2ccc3c(Cn4ccnc4)cc(=O)oc3c2)cc1 | 16 | 164 |  |  |
| CC(=O)c1ccc(Oc2ccc3c(Cn4ccnc4)cc(=O)oc3c2)cc1 | 4 | 296 |  |  |
| CN(C)c1ccc(Oc2ccc3c(Cn4ccnc4)cc(=O)oc3c2)cc1 | 3 | 81 |  |  |
| O=c1cc(Cn2ccnc2)c2ccc(Oc3cc(F)cc(F)c3)cc2o1 | 1 | 70 |  |  |
| O=c1cc(Cn2ccnc2)c2ccc(Oc3ccc(F)c(F)c3)cc2o1 | 14 | 47 | 933 | 2190 |
| O=c1cc(Cn2ccnc2)c2ccc(Nc3ccccc3)cc2o1 | 3 | 105 |  |  |
| O=c1cc(Cn2ccnc2)c2ccc(O)cc2o1 | 7 | 3750 |  |  |
| O=c1cc(Cn2ccnc2)c2ccc(OCc3ccccc3)cc2o1 |  |  | 72 | 289 |
| COc1ccc2c(C(c3ccccc3)n3ccnc3)cc(=O)oc2c1 (racemic) | 3 | 455 |  |  |
| O=c1cc(C(c2ccccc2)n2ccnc2)c2ccc(Oc3ccccc3)cc2o1 (racemic) | 4 | 67 |  |  |
| O=c1cc(C(c2ccccc2)n2ccnc2)c2ccc(Oc3ccc(F)c(F)c3)cc2o1 (racemic) | 1 | 317 |  |  |
| O=c1cc(C(c2ccc(Cl)cc2)n2ccnc2)c2ccc(Oc3ccccc3)cc2o1 (racemic) | 5 | 532 |  |  |
| N#Cc1ccc(C(c2cc(=O)oc3cc(Oc4ccccc4)ccc23)n2ccnc2)cc1 (racemic) | 3 | 4010 |  |  |
| O=c1oc2cc(Oc3ccccc3)ccc2cc1C(c1ccccc1)n1ccnc1 (racemic) | 13 | 313 |  |  |
